According to patent EP0179667B1, “N6-substituted adenosines” (priority 1984, dated 1986):

Tests used:
Swiss-Webster male mice [1] = test: Mouse Activity and Screen Test Procedure (MAST): locomotor activity in actophotometer; format: in vivo; conditions: one hour prior to testing
Experimental: Nine unfasted Swiss-Webster male mice weighing 20-30 g equally divided into three groups for each drug dose to be tested. That is, data for each dose level was generated by three separated groups of three mice each. A minimum of three dose levels (10, 30, and 100 mg/kg) are tested for each drug. Treatments are administered intraperitoneally one hour prior to testing. All dosages are calculated as parent compound and given in volumes of 10 ml/kg. […] Control animals are injected with Methocel. […] The actophotometer consists of a cylindrical chamber whose center is occupied by another cylinder which contains the illumination for six photocells located on the perimeter of the chamber. Six light-beam interruptions equal one count. […] Data: The data obtained from the screen test are expressed as percent of mice falling off the screen. Data derived from locomotor activity of drug treated mice are compared to the activity of vehicle treated animals and are expressed as percent inhibition of spontaneous locomotion. All percentages reported for inhibition of locomotion (LI) are based upon data accumulated for one hour. […] An overall dose rating is obtained by the following criteria: LAD refers to the lowest dose at which an A rating is achieved. […] The compounds are identified in the Examples.

adenosine A2 receptor = target: T1, adenosine A2 receptor (Rattus norvegicus, UniProt P30543); test: Adenosine Receptor Binding - A2 Receptor Affinity (RBA2); conditions: [3H]NECA, rat striatal membranes; read-out: RBA-2
T1 construct: 5 mg original tissue weight of rat weight of rat striatal membranes; tissue Pel-Freez (Rogers, Arkansas); host or cells: rat striatum, membrane preparation
T1 sequence (P30543 whole entry): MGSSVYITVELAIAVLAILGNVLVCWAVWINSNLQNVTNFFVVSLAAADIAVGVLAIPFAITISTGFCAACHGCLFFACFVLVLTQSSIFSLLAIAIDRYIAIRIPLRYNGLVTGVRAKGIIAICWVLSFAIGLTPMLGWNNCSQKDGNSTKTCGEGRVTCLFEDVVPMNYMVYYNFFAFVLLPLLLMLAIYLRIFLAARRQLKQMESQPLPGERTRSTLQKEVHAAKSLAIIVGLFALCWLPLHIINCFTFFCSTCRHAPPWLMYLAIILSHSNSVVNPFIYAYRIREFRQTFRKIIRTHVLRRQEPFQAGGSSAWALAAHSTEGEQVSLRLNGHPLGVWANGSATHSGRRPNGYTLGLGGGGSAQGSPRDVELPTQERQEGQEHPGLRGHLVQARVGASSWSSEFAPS
Experimental: Adenosine Receptor Binding - A2 Receptor Affinity (RBA2)
Brains from 200-500 g mixed sex Sprague-Dawley rats were purchased from Pel-Freez (Rogers, Arkansas). […] Brains were thawed and then kept on ice while the striata were dissected out. […] When needed, tissue was thawed at room temperature, disrupted in a Polytron, and kept on ice until used.
All incubations were for 60 minutes at 25°C in 12x75 mm glass tubes containing 1 ml Tris with 5 mg original tissue weight of rat weight of rat striatal membranes, 4 nM [^3H]-N-ethyl adenosine-5'-carboxamide ([^3H]NECA), 50 nM N^6-cyclopentyladenosine (to eliminate A1 receptor binding), 10 mM MgCl2, 0.1 units/ml of adenosine deaminase and 1% dimethylsulfoxide. N^6-Cyclopentyladenosine was dissolved at 10 mM in 0.02 N HCI and diluted in Tris. […] Test compounds were dissolved at 10 mM in dimethylsulfoxide on the same day as the experiment, and diluted in dimethylsulfoxide to 100x the final incubation concentration. […] [^3H]NECA was diluted to 40 nM in Tris. The membrane suspension (5 mg/0.79 ml) contained sufficient MgC12 and adenosine deaminase to give 10 mM and 0.1 units/ml, respectively, final concentration in the incubation. For test compounds with lC50 values less than 1 µM, the order of additions was test compound (10 µl), N^6-cyclopentyladenosine (100 µl), [^3H]NECA (100 µl), and membranes (0.79 ml). […] After all additions, the rack of tubes was vortexed, and the tubes were then incubated for 60 min at 25°C in a shaking water bath. The rack of tubes was vortexed an additional time halfway through the incubation.
incubations were terminated by filtration through 2.4 cm GF/B filters under reduced pressure. Each tube was filtered as follows: the contents of the tube were poured onto the filter, 4 ml of ice-cold Tris were added to the tube and the contents poured onto the filter, and the filter was washed twice with 4 ml of ice-cold Tris. The filtration was complete in about twelve seconds.
Nonspecific binding was defined as binding in the presence of 100 µM N^6-cyclopentyladenosine, and specific binding was defined as total binding minus nonspecific binding. The IC50 was calculated by weighed nonlinear least squares curve-fitting to the mass-action equation. [formula] • where Y is cpm bound • T is cpm total binding without drug • S is cpm specific binding without drug • D is the concentration of drug • and K is the IC50 of the drug Weighting factors were calculated under the assumption that the standard deviation was proportional to the predicted value of Y. Nonspecific binding was treated as a very large (infinite) concentration of drug in the computer analysis.

Swiss-Webster male mice [2] = test: Mouse Activity and Screen Test Procedure (MAST): screen test (ST); format: in vivo; conditions: one hour postinjection
Text: The compounds of the invention are new chemical substances which are useful as pharmaceutical agents for the treatment of psychoses. The antipsychotic activity of representative compounds of the invention was established by the Mouse Activity and Screen Test Procedrue (MAST) described below.
Nine unfasted Swiss-Webster male mice weighing 20-30 g equally divided into three groups for each drug dose to be tested. That is, data for each dose level was generated by three separated groups of three mice each.
A minimum of three dose levels (10, 30, and 100 mg/kg) are tested for each drug. Treatments are administered intraperitoneally one hour prior to testing. All dosages are calculated as parent compound and given in volumes of 10 ml/kg. Compounds are dissolved or suspended in 0.2% Methocel. Control animals are injected with Methocel.
Testing: A two part testing procedure is started one hour postinjection. First, the screen test (ST) is performed (see Pharmac. Biochem. Behav. 6, 351-353, 1977). Briefly this test consists of placing mice on individual wire screens which are then rotated 180 degrees at the start of a 60 second observation period. The number of mice falling off the inverted screen is recorded.
Data: The data obtained from the screen test are expressed as percent of mice falling off the screen. Data derived from locomotor activity of drug treated mice are compared to the activity of vehicle treated animals and are expressed as percent inhibition of spontaneous locomotion. All percentages reported for inhibition of locomotion (LI) are based upon data accumulated for one hour. Both phases of testing are graded: A=60-100%; G=31-59%; and N=0-30%. An overall dose rating is obtained by the following criteria:
LAD refers to the lowest dose at which an A rating is achieved. […] Utilizing this procedure, an overall dose rating of A was obtained for the noted compound at the indicated dose. The compounds are identified in the Examples.

Row | IC50 (adenosine A2 receptor) | Screen test failure (Swiss-Webster male mice [2]; 3 mg/kg intraperitoneally) | Screen test failure (Swiss-Webster male mice [2]; 10 mg/kg intraperitoneally) | Screen test failure (Swiss-Webster male mice [2]; 30 mg/kg intraperitoneally) | Screen test failure (Swiss-Webster male mice [2]; 0.3 mg/kg intraperitoneally) | Screen test failure (Swiss-Webster male mice [2]; 1 mg/kg intraperitoneally) | Screen test failure (Swiss-Webster male mice [2]; 100 mg/kg intraperitoneally) | Screen test failure (Swiss-Webster male mice [2]; 0.1 mg/kg intraperitoneally) | Structure (SMILES) | Inhibition of mouse locomotor activity (Swiss-Webster male mice [1]; 3 mg/kg intraperitoneally) | Inhibition of mouse locomotor activity (Swiss-Webster male mice [1]; 10 mg/kg intraperitoneally) | Inhibition of mouse locomotor activity (Swiss-Webster male mice [1]; 30 mg/kg intraperitoneally) | Inhibition of mouse locomotor activity (Swiss-Webster male mice [1]; 0.3 mg/kg intraperitoneally) | Inhibition of mouse locomotor activity (Swiss-Webster male mice [1]; 1 mg/kg intraperitoneally) | Inhibition of mouse locomotor activity (Swiss-Webster male mice [1]; 100 mg/kg intraperitoneally) | Inhibition of mouse locomotor activity (Swiss-Webster male mice [1]; 0.1 mg/kg intraperitoneally)
1 | 4440 nM | 22% | 55% | 55% | 11% | 22% | – | – | CC(=O)OC[C@H]1O[C@@H](n2cnc3c(NC4CCCc5ccccc54)ncnc32)[C@H](O)[C@@H]1O (some centres unmarked) [Example 15, N^6-(1-tetralinyl)-5'-acetyl-adenosine] | 96% | 98% | 99% | 46% | 87% | – | –
2 | 57100 nM | 0% | 0% | 22% | – | 0% | – | – | CC(=O)Oc1ccccc1C(=O)OC[C@H]1O[C@@H](n2cnc3c(NC4CCCc5ccccc54)ncnc32)[C@H](O)[C@@H]1O (some centres unmarked) [Example 14, N^6-(1-tetralinyl)-5'-O-(O-acetylsalicoyl)adenosine] | 69% | 94% | 94% | – | 54% | – | –
3 | 476 nM | 0% | 22% | 22% | – | 0% | 99% | – | OC[C@H]1O[C@@H](n2cnc3c(NC4CCCc5ccccc54)ncnc32)C(O)[C@@H]1O (stereo in doubt) [Example 1, (R,S)-N^6-[1-Tetralinyl]-adenosine] | 93% | 98% | 97% | – | 86% | 99% | –
4 | 918 nM | 11% | 11% | – | – | 0% | – | – | COc1ccc2c(c1)C(Nc1ncnc3c1ncn3[C@@H]1O[C@H](CO)[C@@H](O)[C@H]1O)CCC2 (single isomer, unassigned) [Example 5, N6-[1-(7-Methoxy)-tetralinyl]-adenosine] | 82% | 91% | – | – | 39% | – | –
5 | 1270 nM | 0% | 11% | 0% | – | – | – | – | OC[C@H]1O[C@@H](n2cnc3c(NCC4CCCCc5ccccc54)ncnc32)[C@H](O)[C@@H]1O (some centres unmarked) [Example 28, N^6-(1-benzocycloheptyl)methyladenosine] | 35% | 19% | 59% | – | – | – | –
6 | 2030 nM | 0% | 0% | 11% | 0% | 22% | – | 11% | OC[C@H]1O[C@H](n2cnc3c(NC4CCCc5ccccc54)ncnc32)[C@H](O)[C@@H]1O (stereo partly drawn) [Example 3, (S)-N^6-[1-Tetralinyl]-adenosine] | 69% | 95% | 96% | 34% | 30% | – | 40%
7 | 324 nM | 11% | 22% | 66% | 0% | 0% | – | – | COc1cccc2c1CCCC2Nc1ncnc2c1ncn2[C@@H]1O[C@H](CO)[C@@H](O)[C@H]1O (some centres unmarked) [Example 7, N^6-[5-Methoxy-1-aminotetralin]-adenosine] | 91% | 97% | 99% | 7% | 22% | – | –

The next lines start with the molecule.

Row | Structure (SMILES) | IC50 (adenosine A2 receptor) | Screen test failure (Swiss-Webster male mice [2]; 3 mg/kg intraperitoneally) | Screen test failure (Swiss-Webster male mice [2]; 10 mg/kg intraperitoneally) | Screen test failure (Swiss-Webster male mice [2]; 30 mg/kg intraperitoneally) | Screen test failure (Swiss-Webster male mice [2]; 0.3 mg/kg intraperitoneally) | Screen test failure (Swiss-Webster male mice [2]; 1 mg/kg intraperitoneally) | Screen test failure (Swiss-Webster male mice [2]; 100 mg/kg intraperitoneally) | Screen test failure (Swiss-Webster male mice [2]; 0.1 mg/kg intraperitoneally) | Inhibition of mouse locomotor activity (Swiss-Webster male mice [1]; 3 mg/kg intraperitoneally) | Inhibition of mouse locomotor activity (Swiss-Webster male mice [1]; 10 mg/kg intraperitoneally) | Inhibition of mouse locomotor activity (Swiss-Webster male mice [1]; 30 mg/kg intraperitoneally) | Inhibition of mouse locomotor activity (Swiss-Webster male mice [1]; 0.3 mg/kg intraperitoneally) | Inhibition of mouse locomotor activity (Swiss-Webster male mice [1]; 1 mg/kg intraperitoneally) | Inhibition of mouse locomotor activity (Swiss-Webster male mice [1]; 100 mg/kg intraperitoneally) | Inhibition of mouse locomotor activity (Swiss-Webster male mice [1]; 0.1 mg/kg intraperitoneally)
8 | OC[C@H]1O[C@@H](n2cnc3c(NCC4(O)CCCc5ccccc54)ncnc32)[C@H](O)[C@@H]1O (some centres unmarked) [Example 23, N^6-[1-hydroxy-1-tetralinyl]methyl adenosine] | 2850 nM | 0% | 0% | 22% | – | – | – | – | 19% | 16% | 77% | – | – | – | –
9 | OC[C@H]1O[C@@H](n2cnc3c(NCC4(O)CCCCc5ccccc54)ncnc32)[C@H](O)[C@@H]1O (some centres unmarked) [Example 27, N^6-(1-hydroxy-1-benzocycloheptyl]methyladenosine] | 4010 nM | 0% | 11% | 0% | – | – | – | – | 1% | 33% | 33% | – | – | – | –
10 | OC[C@H]1O[C@@H](n2cnc3c(NCC4(O)CCc5ccccc54)ncnc32)[C@H](O)[C@@H]1O (some centres unmarked) [Example 25, N^6-[2,3-dihydro-1-hydroxy-1H-inden-1-yl]methyladenosine] | 987 nM | 11% | 22% | 66% | – | – | – | – | −14% | 89% | 88% | – | – | – | –
11 | OC[C@H]1O[C@@H](n2cnc3c(NCC4=CCCc5ccccc54)ncnc32)[C@H](O)[C@@H]1O [Example 24, N^6-[3,4-dihydro-1-naphthalenyl]methyladenosine] | 76.5 nM | 22% | 22% | 11% | 0% | 0% | – | – | 67% | 94% | 95% | 9% | 34% | – | –
